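Abbreviation: GI50, concentration required for 50% inhibition of growth. Definition used: TGI = concentration required for complete inhibition of growth.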
Legend:
Experiment in all cases: NCI tumour cell line growth inhibition, 384-well format
[1] = tested on: HCT-116 colon
[2] = tested on: MCF7 breast
[3] = tested on: OVCAR-8 ovarian
[4] = tested on: KM12 colon
[5] = tested on: CCRF-CEM leukemia
[6] = tested on: EKVX NSCLC
[7] = tested on: OVCAR-4 ovarian
[8] = tested on: RPMI-8226 leukemia
[9] = tested on: HOP-92 NSCLC
[10] = tested on: CAKI-1 renal
[11] = tested on: NCI-H226 lung
[12] = tested on: NCI-H23 lung
[13] = tested on: SNB-75 CNS
[14] = tested on: MOLT-4 leukemia
[15] = tested on: SK-MEL-28 melanoma
[16] = tested on: SF-268 CNS
[17] = tested on: NCI-H322M lung
[18] = tested on: RXF 393 renal
[19] = tested on: PC-3 prostate
[20] = tested on: NCI/ADR-RES ovarian
[21] = tested on: T-47D breast
[22] = tested on: MDA-MB-435 melanoma
[23] = tested on: HOP-62 NSCLC
[24] = tested on: HL-60(TB) leukemia
[25] = tested on: ACHN renal
[26] = tested on: SR leukemia
[27] = tested on: MDA-MB-231 breast
[28] = tested on: SK-OV-3 ovarian
[29] = tested on: HCC-2998 colon
[30] = tested on: SF-295 CNS
[31] = tested on: A498 renal
[32] = tested on: SN12C renal
[33] = tested on: MDA-MB-468 breast
[34] = tested on: NCI-H460 NSCLC
[35] = tested on: HT29 colon
[36] = tested on: TK-10 renal
[37] = tested on: IGROV1 ovarian
[38] = tested on: BT-549 breast
[39] = tested on: UO-31 renal
[40] = tested on: OVCAR-3 ovarian
[41] = tested on: SNB-19 CNS
[42] = tested on: A549 NSCLC
[43] = tested on: OVCAR-5 ovarian
[44] = tested on: HS 578T breast
[45] = tested on: SF-539 CNS
[46] = tested on: SW-620 colon
[47] = tested on: NCI-H522 lung

## Cc1ccc(Nc2nc(N)c(C(=O)c3ccc(C#N)cc3)s2)cc1
[1]
  GI50: 243 nM
  TGI: 976 nM
[2]
  GI50: 40.2 nM
  TGI: 28200 nM
[3]
  GI50: 86.7 nM
  TGI: 40300 nM
[4]
  GI50: 42 nM
  TGI: 19900 nM
[5]
  GI50: 170 nM
  TGI: 310 nM
[6]
  GI50: 58.4 nM
  TGI: 51500 nM
[7]
  GI50: 385 nM
  TGI: 17800 nM
[8]
  GI50: 30.9 nM
  TGI: 112 nM
[9]
  GI50: 332 nM
  TGI: 23300 nM
[10]
  GI50: 56.6 nM
  TGI: 11200 nM
[11]
  GI50: 39.3 nM
  TGI: 2070 nM
[12]
  GI50: 47.9 nM
  TGI: 1470 nM
[13]
  GI50: 37 nM
  TGI: 520 nM
[14]
  GI50: 128 nM
  TGI: 256 nM
[15]
  GI50: 14600 nM
  TGI: 74900 nM
[16]
  GI50: 45.8 nM
  TGI: 2520 nM
[17]
  GI50: 481 nM
  TGI: 46400 nM
[18]
  GI50: 23.3 nM
  TGI: 51.2 nM
[19]
  GI50: 47.6 nM
  TGI: > 100000 nM
[20]
  GI50: 28.7 nM
  TGI: 69.1 nM
[21]
  GI50: 743 nM
  TGI: 26300 nM
[22]
  GI50: 41.9 nM
  TGI: 151 nM
[23]
  GI50: 38.6 nM
  TGI: 3610 nM
[24]
  GI50: 19.7 nM
  TGI: 34.7 nM
[25]
  GI50: 72.5 nM
  TGI: 17800 nM
[26]
  GI50: 18.1 nM
  TGI: 33.4 nM
[27]
  GI50: 202 nM
  TGI: 35800 nM
[28]
  GI50: 247 nM
  TGI: 18300 nM
[29]
  GI50: 105 nM
  TGI: 572 nM
[30]
  GI50: 57.8 nM
  TGI: 298 nM
[31]
  GI50: 298 nM
  TGI: 16400 nM
[32]
  GI50: 348 nM
  TGI: 54600 nM
[33]
  GI50: 185 nM
  TGI: 352 nM
[34]
  GI50: 178 nM
  TGI: 351 nM
[35]
  GI50: 34 nM
  TGI: 28200 nM
[36]
  GI50: 447 nM
  TGI: 22200 nM
[37]
  GI50: 73.2 nM
  TGI: 15300 nM
[38]
  GI50: 38.2 nM
  TGI: 1310 nM
[39]
  GI50: 69 nM
  TGI: 1720 nM
[40]
  GI50: 170 nM
  TGI: 414 nM
[41]
  GI50: 325 nM
  TGI: > 100000 nM
[42]
  GI50: 247 nM
  TGI: > 100000 nM
[43]
  GI50: 1460 nM
  TGI: 55100 nM
[44]
  GI50: 22.1 nM
  TGI: 47.1 nM
[45]
  GI50: 188 nM
  TGI: 393 nM
[46]
  GI50: 37.3 nM
  TGI: 13900 nM
[47]
  GI50: 121 nM
  TGI: 292 nM

Source: PubChem BioAssay (NCI)
